Read-outs that look alike come from different tables or passages of the source.

Data set [1] has as its target T1, QuantiLum Luciferase (Photinus pyralis, UniProt P08659).
T1 construct: purchased Promega Corporation E170
Kind of data set: Scaffolds: light emission of luciferin derivatives with QuantiLum luciferase alone, + Co A, + DTT, + Co A and DTT. The format is biochemical, firefly.

For data set [2], the target named is T2, CYP4F12 (Homo sapiens, UniProt Q9HCS2).
T2 construct: purchased Discovery Labware (BD/Gentest); host or cells: insect cell expression system (membrane fractions)
T2 sequence (Q9HCS2 1-524): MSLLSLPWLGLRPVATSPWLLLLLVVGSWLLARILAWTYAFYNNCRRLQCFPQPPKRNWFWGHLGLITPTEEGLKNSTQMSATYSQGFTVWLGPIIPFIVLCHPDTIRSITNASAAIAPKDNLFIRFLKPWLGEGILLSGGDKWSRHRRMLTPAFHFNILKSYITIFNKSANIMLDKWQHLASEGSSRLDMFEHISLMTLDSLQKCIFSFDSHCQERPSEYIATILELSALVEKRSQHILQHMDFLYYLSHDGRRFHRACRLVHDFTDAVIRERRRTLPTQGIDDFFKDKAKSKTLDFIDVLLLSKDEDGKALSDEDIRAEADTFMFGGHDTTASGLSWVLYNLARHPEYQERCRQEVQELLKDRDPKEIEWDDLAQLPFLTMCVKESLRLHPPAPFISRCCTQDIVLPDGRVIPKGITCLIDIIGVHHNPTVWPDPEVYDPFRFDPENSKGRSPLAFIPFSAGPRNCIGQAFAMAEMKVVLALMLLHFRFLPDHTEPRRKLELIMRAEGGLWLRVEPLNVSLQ
The conditions noted are these: previously shown (Cali, 2005b); cited from earlier work.

The target of data set [3] is T3, CYP3A4 (Homo sapiens, UniProt P08684). As to the kind of experiment: Two-step luminescent P450 screen of luciferin derivatives. Conditions: result in words.
T3 sequence (P08684 2-503 limits assumed): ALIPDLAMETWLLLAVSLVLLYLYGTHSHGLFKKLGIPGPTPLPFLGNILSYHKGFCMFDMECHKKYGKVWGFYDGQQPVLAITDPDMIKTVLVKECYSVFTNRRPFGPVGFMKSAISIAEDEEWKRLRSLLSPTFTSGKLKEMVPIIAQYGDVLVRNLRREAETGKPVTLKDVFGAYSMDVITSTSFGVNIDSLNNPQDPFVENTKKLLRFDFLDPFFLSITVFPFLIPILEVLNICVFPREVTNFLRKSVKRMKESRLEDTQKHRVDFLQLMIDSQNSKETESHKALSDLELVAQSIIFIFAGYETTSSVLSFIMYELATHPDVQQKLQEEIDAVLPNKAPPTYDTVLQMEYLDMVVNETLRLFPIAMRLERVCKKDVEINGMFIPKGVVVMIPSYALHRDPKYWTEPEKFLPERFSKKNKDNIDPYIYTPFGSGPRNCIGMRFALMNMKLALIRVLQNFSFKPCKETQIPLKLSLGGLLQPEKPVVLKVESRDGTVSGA
In data set [4] the test system is luciferase. Kind of data set: No-enzyme control: activity of luciferase towards the luciferin derivative (background luminescence).
Data set [5] has as its target T2, CYP4F12. Kind of data set: Two-step luminescent P450 screen of luciferin derivatives. Conditions: result in words. It is filed as biochemical. The procedure: P450s are Supersomes™ purchased from Discovery Labware (BD/Gentest). […] HLM is human liver microsomes.
1X substrate concentration: 50 µM.

Data set [6] addresses T4, CYP3A7 (Homo sapiens, UniProt P24462). The description is as above. The conditions noted are these: result in words.
Data set [7] addresses CYP3A5 (Homo sapiens, UniProt P20815). The description is as above. Conditions: result in words.
The subject of data set [8] is CYP3A.
Data set [9] deals with T4, CYP3A7.
In data set [10] the target is T3, CYP3A4.
In data set [11] the test system is equine GST. As to the kind of experiment: Two-step bioluminogenic GST assay with luciferin derivative. The format is biochemical. Conditions: versus GST M1-1 and GST A1-1; result in words. As to the method:
The derivative was tested in a two step format. […] At different times after the reaction was initiated, a portion was removed and mixed with a luciferase reaction mixture. Reactions in which light production increased over time indicate that GST#3 is a substrate for the GST in that reaction.
Equine GST Solution: 25 mg of equine GST (Part G 6511, Sigma Chemical Company, St. Louis, MO) was dissolved in 5 ml of 10 mM BisTris buffer, pH 6.6. […] […] Glutathione (reduced) (Part G 4251, Sigma Chemical Company) was dissolved in water to create a 100 mM solution. GST #3 was dissolved in acetonitrile to produce a 12 mM solution.

Data set [12] in a line: Non-enzymatic transformation of luciferin derivative by glutathione (no GST), luciferase read-out. The format is biochemical. The conditions noted are these: time of mixing/20/40 minutes. The procedure: Buffer stock solutions (1 M) of BisTris at pH 6.5, HEPES, pH 7.0, 7.5 and 8.0 and Tricine pH 8.5 were prepared by dissolving solid reagent obtained from Sigma Chemical Corporation and adjusting the pH to the desired value.
The stock of S. japonica GST used in Example 1A was diluted to 1 mg/ml with 10 mM BisTris pH 6.5.
The reactions were initiated by addition of GST #3 and mixing. […]

Data set [13] has as its target T5, GST M1-1 (Homo sapiens, UniProt P09488, K173N).
T5 construct: purchased Sigma
Kind of data set: Bioluminogenic GST assay with acetyl luciferin. The conditions noted are these: versus GST A1-1; result in words. It is filed as biochemical.

The mark [14] stands for this setting: Derivative Conc. 1.07, Co A + DTT.
[15] abbreviates: Derivative Conc. 3.13, Co A + DTT.
[16] abbreviates: Derivative Conc. 6.25, Co A + DTT.
Where [17] appears, read: Derivative Conc. 12.5, Co A + DTT.
Setting [18] is: Derivative Conc. 25, Co A + DTT.
The mark [19] stands for this setting: Derivative Conc. 50, Co A + DTT.
Where [20] appears, read: Derivative Conc. 100, Co A + DTT.

T1 sequence (P08659 whole entry): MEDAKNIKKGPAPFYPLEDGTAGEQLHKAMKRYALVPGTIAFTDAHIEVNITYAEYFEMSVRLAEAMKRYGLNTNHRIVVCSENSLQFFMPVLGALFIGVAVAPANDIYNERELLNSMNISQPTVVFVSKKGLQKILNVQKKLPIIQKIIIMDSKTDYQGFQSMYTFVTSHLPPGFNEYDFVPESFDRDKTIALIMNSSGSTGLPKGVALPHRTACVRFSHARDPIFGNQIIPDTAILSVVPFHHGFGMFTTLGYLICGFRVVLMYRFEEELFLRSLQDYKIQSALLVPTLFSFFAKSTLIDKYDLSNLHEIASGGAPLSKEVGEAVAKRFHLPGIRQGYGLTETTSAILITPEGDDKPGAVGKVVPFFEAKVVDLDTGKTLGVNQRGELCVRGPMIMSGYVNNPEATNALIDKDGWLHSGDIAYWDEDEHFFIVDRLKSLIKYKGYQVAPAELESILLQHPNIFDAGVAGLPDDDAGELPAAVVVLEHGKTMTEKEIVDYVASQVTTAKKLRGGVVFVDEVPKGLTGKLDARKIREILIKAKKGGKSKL
T4 sequence (P24462 whole entry): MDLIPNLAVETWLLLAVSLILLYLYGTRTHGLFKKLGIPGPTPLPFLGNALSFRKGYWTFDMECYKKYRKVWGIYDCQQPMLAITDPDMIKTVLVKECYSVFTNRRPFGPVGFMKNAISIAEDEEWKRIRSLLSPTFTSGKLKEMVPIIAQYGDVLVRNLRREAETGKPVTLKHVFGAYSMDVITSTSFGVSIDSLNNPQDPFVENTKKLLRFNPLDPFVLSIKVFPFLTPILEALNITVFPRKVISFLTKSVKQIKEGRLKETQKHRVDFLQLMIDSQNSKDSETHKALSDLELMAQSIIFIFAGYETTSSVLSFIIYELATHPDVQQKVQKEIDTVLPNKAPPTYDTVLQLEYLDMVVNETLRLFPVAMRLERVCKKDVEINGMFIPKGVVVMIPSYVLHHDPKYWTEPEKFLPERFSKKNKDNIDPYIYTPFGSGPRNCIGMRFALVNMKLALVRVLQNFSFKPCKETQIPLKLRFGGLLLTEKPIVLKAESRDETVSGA
T5 sequence (P09488 whole entry K173N): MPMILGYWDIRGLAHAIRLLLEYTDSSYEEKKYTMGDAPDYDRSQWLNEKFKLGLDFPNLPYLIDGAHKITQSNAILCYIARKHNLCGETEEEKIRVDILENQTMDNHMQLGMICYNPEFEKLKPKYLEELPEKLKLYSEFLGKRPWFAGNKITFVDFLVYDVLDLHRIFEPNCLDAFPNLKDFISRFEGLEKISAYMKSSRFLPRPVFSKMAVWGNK
Sequence of CYP3A5 (P20815 whole entry): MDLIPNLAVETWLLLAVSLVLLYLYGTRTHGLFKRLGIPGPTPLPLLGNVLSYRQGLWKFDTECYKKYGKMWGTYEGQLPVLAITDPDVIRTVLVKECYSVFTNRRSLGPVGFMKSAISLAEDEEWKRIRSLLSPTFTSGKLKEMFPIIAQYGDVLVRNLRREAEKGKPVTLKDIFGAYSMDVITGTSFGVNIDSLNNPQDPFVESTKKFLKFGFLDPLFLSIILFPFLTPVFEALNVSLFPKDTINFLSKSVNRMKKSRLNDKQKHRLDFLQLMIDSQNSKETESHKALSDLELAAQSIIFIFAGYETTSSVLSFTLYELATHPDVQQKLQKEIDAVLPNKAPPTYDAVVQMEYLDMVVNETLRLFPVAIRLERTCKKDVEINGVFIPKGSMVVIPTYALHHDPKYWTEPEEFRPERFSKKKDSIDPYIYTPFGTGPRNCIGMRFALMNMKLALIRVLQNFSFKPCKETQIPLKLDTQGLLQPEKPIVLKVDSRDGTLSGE

`O=C(O)[C@H]1CSC(c2nc3ccc(OCc4ccccc4)cc3s2)=N1` [luciferin 6-benzyl ether, reference compound]: the light emission values in data set [1] (Derivative Conc. 1.07, Alone) stood at 29234; in [1] (Derivative Conc. 1.07, Co A) it was 50144; in data set [1] (setting [14]) it was 51799; in [1] (Derivative Conc. 1.07, DTT), 57066; in data set [1] (Derivative Conc. 3.13, Alone), 32994; in data set [1] (Derivative Conc. 3.13, Co A) it was 55778. In addition, the light emission values came to 80626 in data set [1] (setting [15]); 86445 in data set [1] (Derivative Conc. 3.13, DTT); 38838 in [1] (Derivative Conc. 6.25, Alone); 58288 in [1] (Derivative Conc. 6.25, Co A); 105912 in data set [1] (setting [16]); 100044 in data set [1] (Derivative Conc. 6.25, DTT). The light emission values in data set [1] (Derivative Conc. 12.5, Alone) is listed as 40486; in data set [1] (Derivative Conc. 12.5, Co A) it was 57996; in [1] (setting [17]), 97371; in data set [1] (Derivative Conc. 12.5, DTT), 94861; in data set [1] (Derivative Conc. 25, Alone) it was 40093; in data set [1] (Derivative Conc. 25, Co A), 53097. Further, the light emission values in data set [1] (setting [18]) is reported as 90306; in [1] (Derivative Conc. 25, DTT), 84034; in data set [1] (Derivative Conc. 50, Alone), 30609; in data set [1] (Derivative Conc. 50, Co A), 38349; in data set [1] (setting [19]) it was 98716; in data set [1] (Derivative Conc. 50, DTT), 80001. Besides, the light emission values came to 31581 in [1] (Derivative Conc. 100, Alone); 33199 in data set [1] (Derivative Conc. 100, Co A); 64460 in data set [1] (setting [20]); 54592 in data set [1] (Derivative Conc. 100, DTT). Also, the “reaction with CYP4F12” value in data set [2] was “react also with CYP4F12”. In addition, the “competition at the substrate binding sites on CYP3A4” value in data set [3] is “only competitive at 1 site”. Moreover, the background luminescence result in [4] (on a BMG luminometer, minus P450) is reported as “about 5000 RLU”. In addition, the “background luminescence (minus P450 control samples)” value in [4] (result in words) is listed as “high background luminescence”. Also, the “P450 activity / cross reactivity with the derivative as substrate” value in [5] is “cross reacted”. For the same molecule, in [6], the “P450 activity / selectivity with the derivative as substrate” value (“P450 activity / selectivity” below) was “cross reacted significantly”.

On to `O=C(O)[C@H]1CSC(c2nc3ccc(OCc4ccc(C(F)(F)F)cc4)cc3s2)=N1` [Luciferin-6-trifluoromethylbenzylether], for which the “P450 activity / selectivity” value in [7] was “enhanced selectivity”.

Turning to `CC(=O)N1CCN(c2ccc(OCC3COC(Cn4ccnc4)(c4ccc(Cl)cc4Cl)O3)cc2)CC1` (centres unmarked) [ketoconazole], the “CYP3A-dependent luminescence in human hepatocytes” value in data set [8] was “inhibition by ketoconazole of both basal and rifampicin-induced activity”.

Turning to quinolylluciferin 6-benzyl ether, the entries for the “P450 activity / selectivity” value in data set [9] and in [10] were “preferred substrate” and “to a lesser degree a substrate”, respectively.

As to `O=C(O)[C@H]1CSC(c2ccc3cc(Oc4ccc(C(F)(F)F)cc4[N+](=O)[O-])ccc3n2)=N1` [GST #3, 6-(2-nitro-4-trifluoromethyl-phenoxy)quinolinyl-luciferin], the light emission values in [1] (Derivative Conc. 1.07, Alone) is on record as 3232; in data set [1] (Derivative Conc. 1.07, Co A), 3081; in data set [1] (setting [14]) it was 6964; in data set [1] (Derivative Conc. 1.07, DTT) it was 5953; in data set [1] (Derivative Conc. 3.13, Alone) it was 4913; in data set [1] (Derivative Conc. 3.13, Co A) it was 4832. Moreover, the light emission values is given as 8826 in data set [1] (setting [15]); 9106 in [1] (Derivative Conc. 3.13, DTT); 7682 in data set [1] (Derivative Conc. 6.25, Alone); 7149 in data set [1] (Derivative Conc. 6.25, Co A); 10423 in data set [1] (setting [16]); 11164 in [1] (Derivative Conc. 6.25, DTT). Moreover, the light emission values in [1] (Derivative Conc. 12.5, Alone) turned out to be 11752; in data set [1] (Derivative Conc. 12.5, Co A), 10674; in data set [1] (setting [17]), 14298; in [1] (Derivative Conc. 12.5, DTT), 16587; in [1] (Derivative Conc. 25, Alone), 15957; in data set [1] (Derivative Conc. 25, Co A) it was 14791. Further, the light emission values was 18145 in data set [1] (setting [18]); 21256 in data set [1] (Derivative Conc. 25, DTT); 17409 in data set [1] (Derivative Conc. 50, Alone); 15440 in data set [1] (Derivative Conc. 50, Co A); 20009 in [1] (setting [19]); 22888 in [1] (Derivative Conc. 50, DTT). Further, the light emission values in [1] (Derivative Conc. 100, Alone) was 16388; in [1] (Derivative Conc. 100, Co A), 18343; in data set [1] (setting [20]), 19129; in data set [1] (Derivative Conc. 100, DTT) it was 21472. The “substrate preference among GSTs in a light generating reaction” value in data set [11] is on record as “better substrate for equine GST”. Further, the “Light Output” value in data set [12] (Table 4 reaction 2: BisTris pH 6.5, 5 µl 100 mM glutathione, no GST, 20 minutes post mixing) came to 1.287; in data set [12] (Table 4 reaction 2: BisTris pH 6.5, 5 µl 100 mM glutathione, no GST, 40 minutes post mixing) it was 1.761; in data set [12] (Table 4 reaction 2: BisTris pH 6.5, 5 µl 100 mM glutathione, no GST, at time of mixing), 1.13; in [12] (Table 4 reaction 4: HEPES pH 7.0, glutathione, 20 minutes post mixing), 1.178; in [12] (Table 4 reaction 4: HEPES pH 7.0, glutathione, 40 minutes post mixing) it was 2.2; in data set [12] (Table 4 reaction 4: HEPES pH 7.0, glutathione, at time of mixing), 1.156.

`COC(=O)[C@H]1CSC(c2ccc3cc(Oc4ccc(C(F)(F)F)cc4[N+](=O)[O-])ccc3n2)=N1` [GST-4, Methyl 6-(2-nitro-4-trifluoromethyl-phenoxy)quinolinyl-luciferin ester]: the “substrate preference among GSTs in a light generating reaction” value in data set [13] was “better substrate for GST M1-1”.

Source of the values: EP1935986B1, “Luminogenic and fluorogenic compounds and methods to detect molecules or conditions” (priority 2005, dated 2006).
